Assay results taken from paper PMC5218480 (PLoS ONE, 2017).

Test system: MV-4-11 cells
Assay: Gene expression microarray analysis (Affymetrix PrimeView) and GSEA
Assay type: cell-based, human
Parameters: RFU PODN (11730768_x_at) / Fold change /veh PODN (11730768_x_at) / RFU LINC00158 (11744669_a_at) / Fold change /veh LINC00158 (11744669_a_at) / RFU DUSP10 (11751237_a_at) / Fold change /veh DUSP10 (11751237_a_at) / RFU ID3 (11757404_x_at) / Fold change /veh ID3 (11757404_x_at) / RFU PLEKHG5 (11737974_s_at) / Fold change /veh PLEKHG5 (11737974_s_at) / RFU LRRC4B (11730491_at) / Fold change /veh LRRC4B (11730491_at) / RFU GIMAP4 (11747438_a_at) / Fold change /veh GIMAP4 (11747438_a_at) / RFU KRT8 (11758183_x_at) / Fold change /veh KRT8 (11758183_x_at) / RFU CNN1 (11734310_a_at) / Fold change /veh CNN1 (11734310_a_at) / RFU VPS37D (11726825_at) / Fold change /veh VPS37D (11726825_at) / RFU C10orf10 (11716522_x_at) / Fold change /veh C10orf10 (11716522_x_at) / RFU KIR2DL2 /// KIR2DL4 /// KIR2DL5A /// KIR2DL5B /// KIR2DS1 /// KIR2DS2 /// KIR2DS3 /// KIR2DS4 /// KIR3DL3 /// KIR3DL3 /// KIR3DS1 (11738374_at) / Fold change /veh KIR2DL2 /// KIR2DL4 /// KIR2DL5A /// KIR2DL5B /// KIR2DS1 /// KIR2DS2 /// KIR2DS3 /// KIR2DS4 /// KIR3DL3 /// KIR3DL3 /// KIR3DS1 (11738374_at) / RFU C1QL1 (11718748_at) / Fold change /veh C1QL1 (11718748_at) / RFU TMPRSS4 (11747572_a_at) / Fold change /veh TMPRSS4 (11747572_a_at) / RFU HAMP (11756126_x_at) / Fold change /veh HAMP (11756126_x_at) / RFU RNFT2 (11725882_a_at) / Fold change /veh RNFT2 (11725882_a_at) / RFU NR4A2 (11747474_a_at) / Fold change /veh NR4A2 (11747474_a_at) / RFU ABCC12 (11746883_a_at) / Fold change /veh ABCC12 (11746883_a_at) / RFU TMEM136 (11760407_x_at) / Fold change /veh TMEM136 (11760407_x_at) / RFU CLDN22 /// WWC2 (11732394_at) / Fold change /veh CLDN22 /// WWC2 (11732394_at) / RFU HLA-DPB1 (11760878_x_at) / Fold change /veh HLA-DPB1 (11760878_x_at) / RFU SPINT1 (11716480_a_at) / Fold change /veh SPINT1 (11716480_a_at) / RFU GAP43 (11754022_s_at) / Fold change /veh GAP43 (11754022_s_at) / RFU A4GNT (11735810_at) / Fold change /veh A4GNT (11735810_at) / RFU PRB3 (11715151_x_at) / Fold change /veh PRB3 (11715151_x_at) / RFU TUBB4B (11761932_at) / Fold change /veh TUBB4B (11761932_at) / RFU CAPN14 (11732068_a_at) / Fold change /veh CAPN14 (11732068_a_at) / RFU TMCC2 (11721928_a_at) / Fold change /veh TMCC2 (11721928_a_at) / RFU IRGQ (11745062_a_at) / Fold change /veh IRGQ (11745062_a_at) / RFU FAM174B (11720279_a_at) / Fold change /veh FAM174B (11720279_a_at) / RFU TMPRSS4 (11748680_a_at) / Fold change /veh TMPRSS4 (11748680_a_at) / RFU FAM212B (11763350_a_at) / Fold change /veh FAM212B (11763350_a_at) / RFU PLEKHG5 (11743358_a_at) / Fold change /veh PLEKHG5 (11743358_a_at) / RFU ZSCAN30 (11745921_a_at) / Fold change /veh ZSCAN30 (11745921_a_at) / RFU CMKLR1 (11741424_a_at) / Fold change /veh CMKLR1 (11741424_a_at) / RFU LOC101060620 /// MAPK8IP1 (11723275_at) / Fold change /veh LOC101060620 /// MAPK8IP1 (11723275_at) / RFU SPTSSB (11747773_x_at) / Fold change /veh SPTSSB (11747773_x_at) / RFU PRSS12 (11739890_at) / Fold change /veh PRSS12 (11739890_at) / RFU BIN1 (11741810_x_at) / Fold change /veh BIN1 (11741810_x_at) / RFU WNT11 (11732464_a_at) / Fold change /veh WNT11 (11732464_a_at) / RFU C10orf10 (11716521_a_at) / Fold change /veh C10orf10 (11716521_a_at) / RFU C5orf56 (11738089_at) / Fold change /veh C5orf56 (11738089_at) / RFU CYB561 (11721691_x_at) / Fold change /veh CYB561 (11721691_x_at) / RFU ANKRD19P (11752326_a_at) / Fold change /veh ANKRD19P (11752326_a_at) / RFU OR2T12 /// OR2T33 /// OR2T8 (11738714_s_at) / Fold change /veh OR2T12 /// OR2T33 /// OR2T8 (11738714_s_at) / RFU VCAN (11748164_a_at) / Fold change /veh VCAN (11748164_a_at) / RFU JSRP1 (11732532_at) / Fold change /veh JSRP1 (11732532_at) / RFU KRTAP10-11 (11738290_x_at) / Fold change /veh KRTAP10-11 (11738290_x_at) / RFU MYO3A (11730013_a_at) / Fold change /veh MYO3A (11730013_a_at) / RFU EBF3 (11725865_a_at) / Fold change /veh EBF3 (11725865_a_at) / RFU CAMK2N1 (11719241_x_at) / Fold change /veh CAMK2N1 (11719241_x_at) / RFU C5orf56 (11738088_a_at) / Fold change /veh C5orf56 (11738088_a_at) / RFU OLFML3 (11715873_a_at) / Fold change /veh OLFML3 (11715873_a_at) / RFU LOC100653217 /// NTM (11731650_a_at) / Fold change /veh LOC100653217 /// NTM (11731650_a_at) / RFU MAPK11 (11762145_a_at) / Fold change /veh MAPK11 (11762145_a_at) / RFU FIZ1 (11724087_x_at) / Fold change /veh FIZ1 (11724087_x_at) / RFU OASL (11726364_x_at) / Fold change /veh OASL (11726364_x_at) / RFU SOX15 (11748057_x_at) / Fold change /veh SOX15 (11748057_x_at) / RFU CD79A (11719716_a_at) / Fold change /veh CD79A (11719716_a_at) / RFU HIST1H1D (11736915_at) / Fold change /veh HIST1H1D (11736915_at) / RFU CASKIN2 (11723855_a_at) / Fold change /veh CASKIN2 (11723855_a_at) / RFU LOC730098 (11760151_x_at) / Fold change /veh LOC730098 (11760151_x_at) / RFU OR4N2 (11742367_at) / Fold change /veh OR4N2 (11742367_at) / RFU PRRT2 (11749266_a_at) / Fold change /veh PRRT2 (11749266_a_at) / RFU SNX32 (11753110_a_at) / Fold change /veh SNX32 (11753110_a_at) / RFU CDHR5 (11726645_a_at) / Fold change /veh CDHR5 (11726645_a_at) / RFU RCAN1 (11760418_a_at) / Fold change /veh RCAN1 (11760418_a_at) / RFU FAM167A (11723789_a_at) / Fold change /veh FAM167A (11723789_a_at) / RFU FAM26E (11764081_at) / Fold change /veh FAM26E (11764081_at) / RFU ISYNA1 (11749810_s_at) / Fold change /veh ISYNA1 (11749810_s_at) / RFU ACY1 (11761880_at) / Fold change /veh ACY1 (11761880_at) / RFU 11764098_at / Fold change /veh 11764098_at / RFU SAMD14 (11745864_x_at) / Fold change /veh SAMD14 (11745864_x_at) / RFU NPB (11741838_a_at) / Fold change /veh NPB (11741838_a_at) / RFU TMPRSS6 (11731388_a_at) / Fold change /veh TMPRSS6 (11731388_a_at) / RFU KRTAP10-2 (11738614_at) / Fold change /veh KRTAP10-2 (11738614_at) / RFU ARHGAP8 /// PRR5-ARHGAP8 (11727945_x_at) / Fold change /veh ARHGAP8 /// PRR5-ARHGAP8 (11727945_x_at) / RFU KRTAP5-7 /// NADSYN1 (11734609_at) / Fold change /veh KRTAP5-7 /// NADSYN1 (11734609_at) / RFU RASL12 (11751679_a_at) / Fold change /veh RASL12 (11751679_a_at) / RFU CDKN2B (11736163_a_at) / Fold change /veh CDKN2B (11736163_a_at) / RFU PRF1 (11729649_at) / Fold change /veh PRF1 (11729649_at) / RFU, ZNF638 /// ZNF638-IT1 / Fold change vs veh, ZNF638 /// ZNF638-IT1 / RFU, PANK3 / Fold change vs veh, PANK3 / RFU, SH3YL1 / Fold change vs veh, SH3YL1 / RFU, ZEB2 / Fold change vs veh, ZEB2 / RFU, NRIP1 / Fold change vs veh, NRIP1 / RFU, PTTG1IP / Fold change vs veh, PTTG1IP / RFU, CAPN2 / Fold change vs veh, CAPN2 / RFU, MED14 / Fold change vs veh, MED14 / RFU, SNORA58 / Fold change vs veh, SNORA58 / RFU, C1orf63 / Fold change vs veh, C1orf63 / RFU, LRRFIP1 / Fold change vs veh, LRRFIP1 / RFU, NDUFAF7 / Fold change vs veh, NDUFAF7 / RFU, SLC12A2 / Fold change vs veh, SLC12A2 / RFU, IBTK / Fold change vs veh, IBTK / RFU, ESF1 / Fold change vs veh, ESF1 / Fold change vs veh, TMEM50B / RFU, TAOK1 / Fold change vs veh, TAOK1 / RFU, ACBD3 / Fold change vs veh, ACBD3 / RFU, TMA16 / Fold change vs veh, TMA16 / RFU, RWDD3 / Fold change vs veh, RWDD3 / RFU, BCAT1 / Fold change vs veh, BCAT1 / RFU, EDEM3 / Fold change vs veh, EDEM3 / RFU, TMEM33 / Fold change vs veh, TMEM33 / RFU, WDR75 / Fold change vs veh, WDR75 / RFU, AHCTF1 / Fold change vs veh, AHCTF1 / RFU, TFRC / Fold change vs veh, TFRC / RFU, ZDHHC17 / Fold change vs veh, ZDHHC17 / RFU, NOM1 / Fold change vs veh, NOM1 / RFU, ARL8B / Fold change vs veh, ARL8B / RFU, ZBTB11 / Fold change vs veh, ZBTB11 / RFU, TAMM41 / Fold change vs veh, TAMM41 / RFU, KIAA1704 /// LOC100996395 / Fold change vs veh, KIAA1704 /// LOC100996395 / RFU, ING1 / Fold change vs veh, ING1 / RFU, TRMT61B / Fold change vs veh, TRMT61B / RFU, FUBP3 / Fold change vs veh, FUBP3 / RFU, TP53 / Fold change vs veh, TP53 / RFU, TNKS2 / Fold change vs veh, TNKS2 / RFU, ZFP14 / Fold change vs veh, ZFP14 / RFU, ACTR2 / Fold change vs veh, ACTR2 / RFU, PPP3R1 / Fold change vs veh, PPP3R1 / RFU, PIK3R1 / Fold change vs veh, PIK3R1 / RFU, HNRNPA1 / Fold change vs veh, HNRNPA1 / RFU, RNF170 / Fold change vs veh, RNF170 / RFU, ZNF28 / Fold change vs veh, ZNF28 / RFU, RNGTT / Fold change vs veh, RNGTT / RFU, OGT / Fold change vs veh, OGT / RFU, BRD1 / Fold change vs veh, BRD1 / RFU, MARS / Fold change vs veh, MARS / RFU, ZNF655 / Fold change vs veh, ZNF655 / RFU, FAHD1 / Fold change vs veh, FAHD1 / RFU, BDP1 / Fold change vs veh, BDP1 / RFU, LRRCC1 / Fold change vs veh, LRRCC1 / RFU, ARID1A / Fold change vs veh, ARID1A / RFU, ZNF146 / Fold change vs veh, ZNF146 / RFU, ZNF330 / Fold change vs veh, ZNF330 / RFU, GPN3 / Fold change vs veh, GPN3 / RFU, C9orf123 / Fold change vs veh, C9orf123 / RFU, N4BP2L2 / Fold change vs veh, N4BP2L2 / RFU, ARFIP1 / Fold change vs veh, ARFIP1 / RFU, FAM179B / Fold change vs veh, FAM179B / RFU, BCL10 / Fold change vs veh, BCL10 / RFU, UHRF1BP1L / Fold change vs veh, UHRF1BP1L / RFU, BET1 / Fold change vs veh, BET1 / RFU, CNOT2 / Fold change vs veh, CNOT2 / RFU, ZNF268 / Fold change vs veh, ZNF268 / Fold change vs veh, ZNF507 / RFU, DGCR2 / Fold change vs veh, DGCR2 / RFU, WDSUB1 / Fold change vs veh, WDSUB1 / Fold change vs veh, HSP90B1 /// MIR3652 / RFU, ADSS / Fold change vs veh, ADSS / RFU, GK / Fold change vs veh, GK / RFU, ZNF148 / Fold change vs veh, ZNF148 / RFU, TAF9 / Fold change vs veh, TAF9 / RFU, SLC1A5 / Fold change vs veh, SLC1A5 / RFU, SLMO2 / Fold change vs veh, SLMO2 / RFU, ABCC4 / Fold change vs veh, ABCC4 / RFU, LOC101060439 /// RAP1B / Fold change vs veh, LOC101060439 /// RAP1B / RFU, RFX7 / Fold change vs veh, RFX7 / RFU, GTPBP10 / Fold change vs veh, GTPBP10 / RFU, CNEP1R1 / Fold change vs veh, CNEP1R1 / RFU, BIVM-ERCC5 /// ERCC5 / Fold change vs veh, BIVM-ERCC5 /// ERCC5 / RFU, ILF3 / Fold change vs veh, ILF3 / RFU 11762660_at / Fold change /veh 11762660_at / RFU VCAN (11757783_s_at) / Fold change /veh VCAN (11757783_s_at) / RFU DDX43 (11728927_at) / Fold change /veh DDX43 (11728927_at) / RFU KRT8 (11758188_x_at) / Fold change /veh KRT8 (11758188_x_at) / RFU NKD1 (11759106_at) / Fold change /veh NKD1 (11759106_at) / RFU SRD5A1 (11742802_a_at) / Fold change /veh SRD5A1 (11742802_a_at) / RFU TPSAB1 /// TPSB2 (11721975_s_at) / Fold change /veh TPSAB1 /// TPSB2 (11721975_s_at) / RFU GSTM3 (11746129_a_at) / Fold change /veh GSTM3 (11746129_a_at) / RFU IL23R (11737362_x_at) / Fold change /veh IL23R (11737362_x_at) / RFU TMEM51 (11727254_a_at) / Fold change /veh TMEM51 (11727254_a_at) / RFU PIWIL2 (11732686_x_at) / Fold change /veh PIWIL2 (11732686_x_at) / RFU ORM1 (11744905_x_at) / Fold change /veh ORM1 (11744905_x_at) / RFU CCDC152 (11743942_at) / Fold change /veh CCDC152 (11743942_at) / RFU ECM1 (11717891_a_at) / Fold change /veh ECM1 (11717891_a_at) / RFU IL23R (11748794_a_at) / Fold change /veh IL23R (11748794_a_at) / RFU TNFAIP8L3 (11732012_x_at) / Fold change /veh TNFAIP8L3 (11732012_x_at) / RFU MBOAT4 (11741988_at) / Fold change /veh MBOAT4 (11741988_at) / RFU 11764193_at / Fold change /veh 11764193_at / RFU TMEM53 (11763286_at) / Fold change /veh TMEM53 (11763286_at) / RFU MAGEB2 (11727129_at) / Fold change /veh MAGEB2 (11727129_at) / RFU TMEM200A (11744735_a_at) / Fold change /veh TMEM200A (11744735_a_at) / RFU CCDC152 (11751479_a_at) / Fold change /veh CCDC152 (11751479_a_at) / RFU FAM211A (11726209_a_at) / Fold change /veh FAM211A (11726209_a_at) / RFU RGS16 (11746705_a_at) / Fold change /veh RGS16 (11746705_a_at) / RFU VCAN (11755009_s_at) / Fold change /veh VCAN (11755009_s_at) / RFU RHOB (11743442_s_at) / Fold change /veh RHOB (11743442_s_at) / RFU RGS16 (11720943_a_at) / Fold change /veh RGS16 (11720943_a_at) / RFU RGS16 (11720944_at) / Fold change /veh RGS16 (11720944_at) / RFU, VPS4B / Fold change vs veh, VPS4B / RFU, CREB1 / Fold change vs veh, CREB1 / RFU, DNAJC13 / Fold change vs veh, DNAJC13 / RFU, GNAQ / Fold change vs veh, GNAQ / RFU, CDK5R1 / Fold change vs veh, CDK5R1 / RFU, ZRANB3 / Fold change vs veh, ZRANB3 / RFU, CUL4A / Fold change vs veh, CUL4A / RFU, CCNY / Fold change vs veh, CCNY / RFU, UFL1 / Fold change vs veh, UFL1 / RFU, COG3 / Fold change vs veh, COG3 / RFU, DIAPH2 / Fold change vs veh, DIAPH2 / RFU, SKA2 / Fold change vs veh, SKA2 / RFU, AFF3 / Fold change vs veh, AFF3 / RFU, LMF1 / Fold change vs veh, LMF1 / RFU, IPO11 / Fold change vs veh, IPO11 / RFU, DFFB / Fold change vs veh, DFFB / RFU, FOXP1 / Fold change vs veh, FOXP1 / RFU, CARD8 / Fold change vs veh, CARD8 / RFU, STRN3 / Fold change vs veh, STRN3 / RFU, ADK / Fold change vs veh, ADK / RFU, RASSF2 / Fold change vs veh, RASSF2 / RFU, WIPF1 / Fold change vs veh, WIPF1 / RFU, LARP1B / Fold change vs veh, LARP1B / RFU, RASA1 / Fold change vs veh, RASA1 / RFU, RB1 / Fold change vs veh, RB1 / RFU, PPFIA1 / Fold change vs veh, PPFIA1 / RFU, MAT2A / Fold change vs veh, MAT2A / RFU, CCT5 / Fold change vs veh, CCT5 / RFU, WDR92 / Fold change vs veh, WDR92 / RFU, CUX1 / Fold change vs veh, CUX1 / RFU, TTC7A / Fold change vs veh, TTC7A / RFU, TMEM135 / Fold change vs veh, TMEM135 / RFU, DEPTOR / Fold change vs veh, DEPTOR / RFU, CPM / Fold change vs veh, CPM / RFU, DNAJB6 / Fold change vs veh, DNAJB6 / RFU, CACNA2D3 / Fold change vs veh, CACNA2D3 / RFU, DTX4 / Fold change vs veh, DTX4 / RFU, TFCP2 / Fold change vs veh, TFCP2 / RFU, GMCL1 /// GMCL1P1 / Fold change vs veh, GMCL1 /// GMCL1P1 / RFU, AEBP2 / Fold change vs veh, AEBP2 / RFU, SNHG1 /// SNORD22 /// SNORD25 /// SNORD26 /// SNORD27 /// SNORD28 /// SNORD29 /// SNORD31 / Fold change vs veh, SNHG1 /// SNORD22 /// SNORD25 /// SNORD26 /// SNORD27 /// SNORD28 /// SNORD29 /// SNORD31 / Fold change (Aza/veh), C12orf56 (ProbeSet 11735607_a_at) / Fold change (ACY-1035/veh), C12orf56 (ProbeSet 11735607_a_at) / Fold change (Aza/veh), FGFR1OP (ProbeSet 11751329_s_at) / Fold change (ACY-1035/veh), FGFR1OP (ProbeSet 11751329_s_at) / Fold change (Aza/veh), VPS36 (ProbeSet 11739960_a_at) / Fold change (ACY-1035/veh), VPS36 (ProbeSet 11739960_a_at) / RFU SYPL1 (11715823_x_at) / Fold change /veh SYPL1 (11715823_x_at) / RFU IGFBP7 (11715501_s_at) / Fold change /veh IGFBP7 (11715501_s_at) / RFU REEP3 (11722064_at) / Fold change /veh REEP3 (11722064_at) / RFU IGLL1 (11728026_x_at) / Fold change /veh IGLL1 (11728026_x_at): dose or concentration left out as unconfirmed
Settings: ProbeSet 11725141_a_at; LIST B

Nc1ccc(-c2cccs2)cc1NC(=O)c1ccc2c(c1)cc(C1CC1)n2CCN1CCOCC1 [ACY-1035]
Fold change vs veh, FUBP3: 0.87
